pKi: −log10 of the molar value.
Columns and labels:
human orexin 1 receptors = human orexin 1 receptors (Homo sapiens (Human), UniProt O43613); experiment: Calcium Accumulation in Cells (FLIPR), antagonism of orexin A; assay type: cell-based; details: for pKi: antagonism of orexin A, Cheng-Prusoff corrected, read-out: FLIPR hOx1R Ki; for inhibition at 10 µM: measured at a concentration of 10 μM of compound, read-out: FLIPR hOx1R % inhibition value
human orexin 2 receptors = human orexin 2 receptors (Homo sapiens (Human), UniProt O43614); experiment: as above; assay type: cell-based; details: for pKi: antagonism of orexin A, Cheng-Prusoff corrected, read-out: FLIPR hOx2R Ki; for inhibition at 10 µM: measured at a concentration of 10 μM of compound, read-out: FLIPR hOx2R % inhibition value
human orexin 2 receptors, sequence (O43614 whole entry): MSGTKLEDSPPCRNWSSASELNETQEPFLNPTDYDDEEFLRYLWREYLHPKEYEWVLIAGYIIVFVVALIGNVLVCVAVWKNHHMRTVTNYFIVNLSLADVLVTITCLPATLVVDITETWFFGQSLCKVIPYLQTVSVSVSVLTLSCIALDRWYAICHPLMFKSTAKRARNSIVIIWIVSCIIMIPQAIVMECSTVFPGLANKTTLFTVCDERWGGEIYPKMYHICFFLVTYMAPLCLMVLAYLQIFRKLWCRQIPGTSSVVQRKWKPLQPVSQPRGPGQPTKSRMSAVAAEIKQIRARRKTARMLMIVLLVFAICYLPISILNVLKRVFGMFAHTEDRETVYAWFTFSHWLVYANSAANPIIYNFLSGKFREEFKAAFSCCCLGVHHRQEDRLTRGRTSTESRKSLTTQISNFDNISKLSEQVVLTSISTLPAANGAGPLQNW
Procedure, shortened: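 Cells expressing human orexin 2 receptor, loaded with Fluo4-AM (2 μM) plus probenecid (0.1 mM) for 1 h, then washed. Antagonism read as inhibition of the orexin A calcium fluorescence signal (FLIPR).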

human orexin 1 receptors, sequence (O43613 whole entry): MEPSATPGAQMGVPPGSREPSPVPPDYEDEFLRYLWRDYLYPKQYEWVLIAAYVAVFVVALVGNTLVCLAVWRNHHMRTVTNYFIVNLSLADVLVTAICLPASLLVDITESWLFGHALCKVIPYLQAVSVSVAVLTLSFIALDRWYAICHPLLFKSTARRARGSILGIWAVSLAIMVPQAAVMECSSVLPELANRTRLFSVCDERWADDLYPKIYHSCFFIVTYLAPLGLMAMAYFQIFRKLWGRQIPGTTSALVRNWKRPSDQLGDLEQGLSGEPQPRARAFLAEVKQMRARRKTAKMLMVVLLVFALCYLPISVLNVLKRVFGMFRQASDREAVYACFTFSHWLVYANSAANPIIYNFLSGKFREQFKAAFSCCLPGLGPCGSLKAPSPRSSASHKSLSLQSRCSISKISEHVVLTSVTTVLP

| SMILES | pKi (human orexin 1 receptors) | pKi (human orexin 2 receptors) | inhibition at 10 µM (human orexin 1 receptors) [%] | inhibition at 10 µM (human orexin 2 receptors) [%] |
| --- | --- | --- | --- | --- |
| COc1ccc([C@H](C)NC(=O)C(C)Oc2cc(C)c3c(C4CC4)nn(C)c3n2)cc1 (stereo partly drawn) [Example 6.70, 2-(3-cyclopropyl-1,4-dimethyl-1H-pyrazolo[3,4-b]pyridin-6-yloxy)-N-((S)-1-(4-methoxyphenyl)ethyl)propanamide] | 5.97 | 5.97 | – | – |
| COc1ccc([C@H](C)NC(=O)COc2nc3c(c(C4CC4)nn3C)c(C)c2C)cc1 [Example 6.74, (S)-2-(3-cyclopropyl-1,4,5-trimethyl-1H-pyrazolo[3,4-b]pyridin-6-yloxy)-N-(1-(4-methoxyphenyl)ethyl)acetamide] | – | – | 23 | 38 |
| Cc1ccc([C@H](C)NC(=O)COc2nc3c(c(C4CC4)nn3C)c(C)c2C)cc1 [Example 6.75, (S)-2-(3-cyclopropyl-1,4,5-trimethyl-1H-pyrazolo[3,4-b]pyridin-6-yloxy)-N-(1-p-tolylethyl)acetamide] | 5.76 | 6.25 | – | – |
| COc1ccc([C@H](C)NC(=O)COc2nc3c(cc2C)c(C2CC2)nn3C)cc1 [Example 6.76, (S)-2-(3-cyclopropyl-1,5-dimethyl-1H-pyrazolo[3,4-b]pyridin-6-yloxy)-N-(1-(4-methoxyphenyl)ethyl)acetamide] | – | – | 23 | 34 |
| C[C@H](NC(=O)COc1cc(C(F)(F)F)c2c(-c3ccccc3)noc2n1)c1ccccc1 [Example 6.78, (S)-2-(3-phenyl-4-(trifluoromethyl)isoxazolo[5,4-b]pyridin-6-yloxy)-N-(1-phenylethyl)acetamide] | – | 5.74 | 43 | – |
| Cc1cnc(CNC(=O)COc2cc(C)c3c(C4CC4)nn(C)c3n2)cn1 [Example 7.2, 2-(3-cyclopropyl-1,4-dimethyl-1H-pyrazolo[3,4-b]pyridin-6-yloxy)-N-((5-methylpyrazin-2-yl)methyl)acetamide] | – | – | < 10 | 15 |
| Cc1cc(OCC(=O)NCCCn2ccnc2)nc2c1c(C1CC1)nn2C [Example 7.3, N-(3-(1H-imidazol-1-yl)propyl)-2-(3-cyclopropyl-1,4-dimethyl-1H-pyrazolo[3,4-b]pyridin-6-yloxy)acetamide] | – | – | < 10 | 16 |
| Cc1cc(OCC(=O)NCc2ccc3c(c2)CCO3)nc2c1c(C1CC1)nn2C [Example 7.4, 2-(3-cyclopropyl-1H-dimethyl-1H-pyrazolo[3,4-b]pyridin-6-yloxy)-N-((2,3-dihydrobenzofuran-5-yl)methyl)acetamide] | – | – | < 10 | 26 |
| Cc1cc(OCC(=O)NCCc2c[nH]c3ccccc23)nc2c1c(C1CC1)nn2C [Example 7.5, N-(2-(1H-indol-3-yl)ethyl)-2-(3-cyclopropyl-1H-dimethyl-1H-pyrazolo[3,4-b]pyridin-6-yloxy)acetamide] | – | 6.32 | < 10 | – |
| Cc1cc(OCC(=O)NCC2CCCCC2)nc2c1c(C1CC1)nn2C [Example 7.6, N-(cyclohexylmethyl)-2-(3-cyclopropyl-1,4-dimethyl-1H-pyrazolo[3,4-b]pyridin-6-yloxy)acetamide] | – | – | 18 | < 10 |
| Cc1cccc(C(C)NC(=O)COc2cc(C)c3c(C4CC4)nn(C)c3n2)n1 (centres unmarked) [Example 7.7, 2-(3-cyclopropyl-1,4-dimethyl-1H-pyrazolo[3,4-b]pyridin-6-yloxy)-N-(1-(6-methylpyridin-2-yl)ethyl)acetamide] | – | – | 32 | 21 |
| Cc1cc(OCC(=O)NC2CCCc3ncccc32)nc2c1c(C1CC1)nn2C (centres unmarked) [Example 7.8, 2-(3-cyclopropyl-1H-dimethyl-1H-pyrazolo[3,4-b]pyridin-6-yloxy)-N-(5,6,7,8-tetrahydroquinolin-5-yl)acetamide] | – | – | 26 | 20 |
| COc1ccc2c(c1)C(NC(=O)COc1cc(C)c3c(C4CC4)nn(C)c3n1)CC2 (centres unmarked) [Example 7.9, 2-(3-cyclopropyl-1,4-dimethyl-1H-pyrazolo[3,4-b]pyridin-6-yloxy)-N-(6-methoxy-2,3-dihydro-1H-inden-1-yl)acetamide] | 6.06 | 6.13 | – | – |
| Cc1cc(OCC(=O)NCc2cccc3cnn(C)c23)nc2c1c(C1CC1)nn2C [Example 7.10, 2-(3-cyclopropyl-1,4-dimethyl-1H-pyrazolo[3,4-b]pyridin-6-yloxy)-N-((1-methyl-1H-indazol-7-yl)methyl)acetamide] | – | – | 34 | 40 |
| COc1cccc([C@H](C)NC(=O)COc2cc(C)c3c(C4CC4)nn(C)c3n2)c1 [Example 7.12, (S)-2-(3-cyclopropyl-1,4-dimethyl-1H-pyrazolo[3,4-b]pyridin-6-yloxy)-N-(1-(3-methoxyphenyl)ethyl)acetamide] | 6.13 | – | – | 43 |
| COc1ccccc1[C@H](C)NC(=O)COc1cc(C)c2c(C3CC3)nn(C)c2n1 [Example 7.13, (S)-2-(3-cyclopropyl-1,4-dimethyl-1H-pyrazolo[3,4-b]pyridin-6-yloxy)-N-(1-(2-methoxyphenyl)ethyl)acetamide] | 5.81 | 6.35 | – | – |

| SMILES | pKi (human orexin 1 receptors) | pKi (human orexin 2 receptors) | inhibition at 10 µM (human orexin 1 receptors) [%] | inhibition at 10 µM (human orexin 2 receptors) [%] |
| --- | --- | --- | --- | --- |
| Cc1cc(OCC(=O)NCc2ccc(Cl)nc2)nc2c1c(C1CC1)nn2C [Example 7.14, N-((6-chloropyridin-3-yl)methyl)-2-(3-cyclopropyl-1,4-dimethyl-1H-pyrazolo[3,4-b]pyridin-6-yloxy)acetamide] | – | – | 31 | 20 |
| Cc1cc(OCC(=O)NCc2cccc3[nH]ncc23)nc2c1c(C1CC1)nn2C [Example 7.15, N-((1H-indazol-4-yl)methyl)-2-(3-cyclopropyl-1,4-dimethyl-1H-pyrazolo[3,4-b]pyridin-6-yloxy)acetamide] | – | – | 26 | 18 |
| COc1ccc(CNC(=O)COc2cc(C)c3c(C4CC4)nn(C)c3n2)cc1Cl [Example 7.16, N-(3-chloro-4-methoxybenzyl)-2-(3-cyclopropyl-1,4-dimethyl-1H-pyrazolo[3,4-b]pyridin-6-yloxy)acetamide] | 5.44 | 5.99 | – | – |
| Cc1cc(OCC(=O)NC(C)c2ccc3[nH]ccc3c2)nc2c1c(C1CC1)nn2C (centres unmarked) [Example 7.17, N-(1-(1H-indol-5-yl)ethyl)-2-(3-cyclopropyl-1,4-dimethyl-1H-pyrazolo[3,4-b]pyridin-6-yloxy)acetamide] | 6.38 | 7.03 | – | – |
| Cc1cccnc1CNC(=O)COc1cc(C)c2c(C3CC3)nn(C)c2n1 [Example 7.18, 2-(3-cyclopropyl-1,4-dimethyl-1H-pyrazolo[3,4-b]pyridin-6-yloxy)-N-((3-methylpyridin-2-yl)methyl)acetamide] | – | – | < 10 | 11 |
| COc1ccc(C(C)NC(=O)COc2cc(C)c3c(C4CC4)nn(C)c3n2)cc1F (centres unmarked) [Example 7.19, 2-(3-cyclopropyl-1,4-dimethyl-1H-pyrazolo[3,4-b]pyridin-6-yloxy)-N-(1-(3-fluoro-4-methoxy-phenyl)ethyl)acetamide] | 5.58 | 6.17 | – | – |
| Cc1cc(OCC(=O)NC(C)c2cnn(C)c2)nc2c1c(C1CC1)nn2C (centres unmarked) [Example 7.20, 2-(3-cyclopropyl-1,4-dimethyl-1H-pyrazolo[3,4-b]pyridin-6-yloxy)-N-(1-(1-methyl-1H-pyrazol-4-yl)ethyl)acetamide] | – | – | 34 | 31 |
| Cc1ccnc(C(C)NC(=O)COc2cc(C)c3c(C4CC4)nn(C)c3n2)c1 (centres unmarked) [Example 7.21, 2-(3-cyclopropyl-1,4-dimethyl-1H-pyrazolo[3,4-b]pyridin-6-yloxy)-N-(1-(4-methylpyridin-2-yl)ethyl)acetamide] | – | – | < 10 | 22 |
| Cc1csc(C(C)NC(=O)COc2cc(C)c3c(C4CC4)nn(C)c3n2)n1 (centres unmarked) [Example 7.22, 2-(3-cyclopropyl-1,4-dimethyl-1H-pyrazolo[3,4-b]pyridin-6-yloxy)-N-(1-(4-methylthiazol-2-yl)ethyl)acetamide] | – | – | 40 | 32 |
| Cc1cc(OCC(=O)NC(C)c2nc3ccccc3s2)nc2c1c(C1CC1)nn2C (centres unmarked) [Example 7.23, N-(1-(benzo[d]thiazol-2-yl)ethyl)-2-(3-cyclopropyl-1,4-dimethyl-1H-pyrazolo[3,4-b]pyridin-6-yloxy)acetamide] | 6.25 | 6.82 | – | – |
| Cc1cc(OCC(=O)NC2CCCc3c2cnn3C)nc2c1c(C1CC1)nn2C (centres unmarked) [Example 7.24, 2-(3-cyclopropyl-1,4-dimethyl-1H-pyrazolo[3,4-b]pyridin-6-yloxy)-N-(1-methyl-4,5,6,7-tetrahydro-1H-indazol-4-yl)acetamide] | – | – | 28 | 25 |
| Cc1cc(OCC(=O)NC(C)c2cn3ccsc3n2)nc2c1c(C1CC1)nn2C (centres unmarked) [Example 7.25, 2-(3-cyclopropyl-1,4-dimethyl-1H-pyrazolo[3,4-b]pyridin-6-yloxy)-N-(1-(imidazo[2,1-b]thiazol-6-yl)ethyl)acetamide] | 5.81 | 6.23 | – | – |
| Cc1cc(OCC(=O)N[C@@H](C)CCc2ccccc2)nc2c1c(C1CC1)nn2C [Example 7.26, (S)-2-(3-cyclopropyl-1,4-dimethyl-1H-pyrazolo[3,4-b]pyridin-6-yloxy)-N-(4-phenylbutan-2-yl)acetamide] | 5.78 | 6.74 | – | – |
| COc1ccc(CNC(=O)COc2cc(C)c3c(C4CC4)nn(C)c3n2)c(OC)c1 [Example 7.27, 2-(3-cyclopropyl-1,4-dimethyl-1H-pyrazolo[3,4-b]pyridin-6-yloxy)-N-(2,4-dimethoxybenzyl)acetamide] | – | 6.33 | 48 | – |
| Cc1ccc2c(c1)C(NC(=O)COc1cc(C)c3c(C4CC4)nn(C)c3n1)CC2 (centres unmarked) [Example 7.28, 2-(3-cyclopropyl-1,4-dimethyl-1H-pyrazolo[3,4-b]pyridin-6-yloxy)-N-(6-methyl-2,3-dihydro-1H-inden-1-yl)acetamide] | – | – | 34 | 37 |

Source: patent US8742106B2 (Novartis AG, priority 2009, dated 2014)
